Assay results: patent US11040035B2, “3-oxo-2,6-diphenyl-2,3-dihydropyridazine-4-carboxamides” (BAYER PHARMA AKTIENGESELLSCHAFT, priority 2016, dated 2021)

How the values were obtained:
AHR [1] = biological target: T1, AHR (Homo sapiens, UniProt P35869); assay: In vitro assay 2: agonism in human cell line (transactivation assay)
T1 sequence (P35869 11-848): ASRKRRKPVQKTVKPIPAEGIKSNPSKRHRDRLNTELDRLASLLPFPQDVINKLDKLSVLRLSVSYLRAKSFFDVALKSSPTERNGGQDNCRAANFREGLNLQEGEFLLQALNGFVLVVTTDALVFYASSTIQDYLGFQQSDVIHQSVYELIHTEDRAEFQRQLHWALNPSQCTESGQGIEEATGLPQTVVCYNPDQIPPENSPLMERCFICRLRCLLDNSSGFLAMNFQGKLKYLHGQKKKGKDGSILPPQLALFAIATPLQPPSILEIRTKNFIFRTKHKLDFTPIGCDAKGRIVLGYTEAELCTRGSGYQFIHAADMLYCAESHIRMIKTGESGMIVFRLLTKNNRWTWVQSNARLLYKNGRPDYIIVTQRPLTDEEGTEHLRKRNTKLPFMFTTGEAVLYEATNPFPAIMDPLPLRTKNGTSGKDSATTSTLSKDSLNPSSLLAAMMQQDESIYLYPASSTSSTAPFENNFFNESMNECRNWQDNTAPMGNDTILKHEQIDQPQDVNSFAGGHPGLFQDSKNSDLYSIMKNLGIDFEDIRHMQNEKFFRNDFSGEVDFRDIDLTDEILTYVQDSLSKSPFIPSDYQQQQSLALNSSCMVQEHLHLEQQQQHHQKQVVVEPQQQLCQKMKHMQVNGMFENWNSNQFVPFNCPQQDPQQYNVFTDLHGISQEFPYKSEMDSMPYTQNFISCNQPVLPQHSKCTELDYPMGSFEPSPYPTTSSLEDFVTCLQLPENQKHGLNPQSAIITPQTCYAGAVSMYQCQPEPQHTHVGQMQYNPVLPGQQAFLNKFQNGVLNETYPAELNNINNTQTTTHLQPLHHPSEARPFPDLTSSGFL

AHR [2] = biological target: T1, AHR; assay: In vitro assay 1: antagonism in human cell line (transactivation assay, kynurenic acid prestimulated); details: Assay 1: AHR-luc Hum Antagonism IC50 [M], 150 μM kynurenic acid, 20 hours, firefly luciferase
[3] = Assay 2: AHR-luc Hum Agonism IC50 [M], no kynurenic acid, 20 hours, firefly luciferase
[4] = read-out: Assay 2: AHR-luc Hum Agonism IC50, no kynurenic acid, 20 hours, firefly luciferase

IC50 (AHR [1]; [3]) [M] | IC50 (AHR [2]) [M] | IC50 (AHR [1]; [4]) [M] | SMILES
> 2e-05 | 8.99e-08 |  | O=C(NCC(O)C(F)(F)F)c1cc(-c2ccc(Cl)cc2)nn(-c2cccc(Cl)c2)c1=O (single isomer, unassigned) [Example 63, 2-(3-Chlorophenyl)-6-(4-chlorophenyl)-3-oxo-N-(3,3,3-trifluoro-2-hydroxypropyl)-2,3-dihydropyridazine-4-carboxamide]
 | 3.66e-07 | > 2e-05 | O=C(NCC(O)C(F)(F)F)c1cc(-c2ccc(Cl)cc2)nn(-c2cccc(Cl)c2)c1=O (single isomer, unassigned) [Example 64, 2-(3-Chlorophenyl)-6-(4-chlorophenyl)-3-oxo-N-(3,3,3-trifluoro-2-hydroxypropyl)-2,3-dihydropyridazine-4-carboxamide]
> 2e-05 | 3.7e-07 |  | CC(C)C(O)CNC(=O)c1cc(-c2ccc(Cl)cc2)nn(-c2cccc(Cl)c2)c1=O (single isomer, unassigned) [Example 68, 2-(3-Chlorophenyl)-6-(4-chlorophenyl)-N-(2-hydroxy-3-methylbutyl)-3-oxo-2,3-dihydropyridazine-4-carboxamide]
 | 4.41e-07 | > 2e-05 | CC(C)C(O)CNC(=O)c1cc(-c2ccc(Cl)cc2)nn(-c2cccc(Cl)c2)c1=O (single isomer, unassigned) [Example 69, 2-(3-Chlorophenyl)-6-(4-chlorophenyl)-N-(2-hydroxy-3-methylbutyl)-3-oxo-2,3-dihydropyridazine-4-carboxamide]
> 2e-05 | 7.28e-08 |  | O=C(NCC(O)C(F)(F)F)c1cc(-c2ccc(Cl)cc2)nn(-c2ccccc2)c1=O (single isomer, unassigned) [Example 77, 6-(4-chlorophenyl)-3-oxo-2-phenyl-N-(3,3,3-trifluoro-2-hydroxypropyl)-2,3-dihydropyridazine-4-carboxamide]
 | 2.66e-07 | > 2e-05 | O=C(NCC(O)C(F)(F)F)c1cc(-c2ccc(Cl)cc2)nn(-c2ccccc2)c1=O (single isomer, unassigned) [Example 78, 6-(4-chlorophenyl)-3-oxo-2-phenyl-N-(3,3,3-trifluoro-2-hydroxypropyl)-2,3-dihydropyridazine-4-carboxamide]
 | 1.51e-07 | > 2e-05 | O=C(N[C@@H]1CCCC[C@@H]1O)c1cc(-c2ccc(Cl)cc2)nn(-c2cccc(F)c2)c1=O (single isomer, unassigned) [Example 105, 6-(4-Chlorophenyl)-2-(3-fluorophenyl)-N-(cis-2-hydroxycyclohexyl)-3-oxo-2,3-dihydropyridazine-4-carboxamide]
 | 2.4e-07 | > 2e-05 | COc1ccc(-c2cc(C(=O)N[C@@H]3CCCC[C@@H]3O)c(=O)n(-c3cccc(F)c3)n2)cc1 (single isomer, unassigned) [Example 108, 2-(3-Fluorophenyl)-N-(cis-2-hydroxycyclohexyl)-6-(4-methoxyphenyl)-3-oxo-2,3-dihydropyridazine-4-carboxamide]
 | 4.51e-07 | > 2e-05 | O=C(N[C@H]1CCCC[C@@H]1O)c1cc(-c2ccc(Cl)cc2)nn(-c2cccc(F)c2)c1=O (single isomer, unassigned) [Example 119, 6-(4-Chlorophenyl)-2-(3-fluorophenyl)-N-(trans-2-hydroxycyclohexyl)-3-oxo-2,3-dihydropyridazine-4-carboxamide]
> 2e-05 | 3.42e-08 |  | O=C(NCC(O)C(F)(F)F)c1cc(-c2ccc(OC(F)F)cc2)nn(-c2cccc(F)c2)c1=O (single isomer, unassigned) [Example 121, 6-[4-(Difluoromethoxy)phenyl]-2-(3-fluorophenyl)-3-oxo-N-(3,3,3-trifluoro-2-hydroxypropyl)-2,3-dihydropyridazine-4-carboxamide]
 | 1.38e-07 | > 2e-05 | O=C(NCC(O)C(F)(F)F)c1cc(-c2ccc(OC(F)F)cc2)nn(-c2cccc(F)c2)c1=O (single isomer, unassigned) [Example 122, 6-[4-(Difluoromethoxy)phenyl]-2-(3-fluorophenyl)-3-oxo-N-(3,3,3-trifluoro-2-hydroxypropyl)-2,3-dihydropyridazine-4-carboxamide]
 | 1.86e-07 | > 2e-05 | O=C(N[C@H]1CCC[C@@H]1O)c1cc(-c2ccc(Cl)cc2)nn(-c2cccc(F)c2)c1=O (single isomer, unassigned) [Example 125, 6-(4-Chlorophenyl)-2-(3-fluorophenyl)-N-(trans-2-hydroxycyclopentyl)-3-oxo-2,3-dihydropyridazine-4-carboxamide]
 | 1.43e-07 | > 2e-05 | O=C(N[C@H]1COC[C@@H]1O)c1cc(-c2ccc(Cl)cc2)nn(-c2cccc(F)c2)c1=O (single isomer, unassigned) [Example 136, 6-(4-Chlorophenyl)-2-(3-fluorophenyl)-N-(trans-4-hydroxytetrahydrofuran-3-yl)-3-oxo-2,3-dihydropyridazine-4-carboxamide]
> 2e-05 | 7.81e-08 |  | CC(O)C(C)NC(=O)c1cc(-c2ccc(OC(F)F)cc2)nn(-c2cccc(F)c2)c1=O (single isomer, unassigned) [Example 141, 6-[4-(Difluoromethoxy)phenyl]-2-(3-fluorophenyl)-N-(3-hydroxybutan-2-yl)-3-oxo-2,3-dihydropyridazine-4-carboxamide]
 | 9.15e-07 | > 2e-05 | CC(O)C(C)NC(=O)c1cc(-c2ccc(OC(F)F)cc2)nn(-c2cccc(F)c2)c1=O (single isomer, unassigned) [Example 142, 6-[4-(Difluoromethoxy)phenyl]-2-(3-fluorophenyl)-N-(3-hydroxybutan-2-yl)-3-oxo-2,3-dihydropyridazine-4-carboxamide]
 | 2.94e-07 | > 2e-05 | O=C(NC(CO)C1CCOC1)c1cc(-c2ccc(OC(F)F)cc2)nn(-c2cccc(F)c2)c1=O (single isomer, unassigned) [Example 146, 6-[4-(Difluoromethoxy)phenyl]-2-(3-fluorophenyl)-N-{(2-hydroxy-1-tetrahydrofuran-3-yl)ethyl}-3-oxo-2,3-dihydropyridazine-4-carboxamide]
 | 4.66e-07 | > 2e-05 | O=C(NC(CO)C1CCOC1)c1cc(-c2ccc(OC(F)F)cc2)nn(-c2cccc(F)c2)c1=O (single isomer, unassigned) [Example 147, 6-[4-(Difluoromethoxy)phenyl]-2-(3-fluorophenyl)-N-{(2-hydroxy-1-tetrahydrofuran-3-yl)ethyl}-3-oxo-2,3-dihydropyridazine-4-carboxamide]
 | 5.33e-07 | > 2e-05 | O=C(NC(CO)C1CCOC1)c1cc(-c2ccc(OC(F)F)cc2)nn(-c2cccc(F)c2)c1=O (single isomer, unassigned) [Example 148, 6-[4-(Difluoromethoxy)phenyl]-2-(3-fluorophenyl)-N-{(2-hydroxy-1-tetrahydrofuran-3-yl)ethyl}-3-oxo-2,3-dihydropyridazine-4-carboxamide]
> 2e-05 | 2.35e-07 |  | O=C(NC(CO)C1CCOCC1)c1cc(-c2ccc(Cl)cc2)nn(-c2cccc(F)c2)c1=O (single isomer, unassigned) [Example 150, 6-(4-Chlorophenyl)-2-(3-fluorophenyl)-N-[2-hydroxy-1-(tetrahydro-2H-pyran-4-yl)ethyl]-3-oxo-2,3-dihydropyridazine-4-carboxamide]
 | 1.24e-07 | > 2e-05 | O=C(NC(CO)C1CCOCC1)c1cc(-c2ccc(Cl)cc2)nn(-c2cccc(F)c2)c1=O (single isomer, unassigned) [Example 151, 6-(4-Chlorophenyl)-2-(3-fluorophenyl)-N-[2-hydroxy-1-(tetrahydro-2H-pyran-4-yl)ethyl]-3-oxo-2,3-dihydropyridazine-4-carboxamide]
 | 6.77e-07 | > 2e-05 | O=C(NC(CO)C(F)(F)F)c1cc(-c2ccc(OC(F)(F)F)cc2)nn(-c2cccc(F)c2)c1=O (single isomer, unassigned) [Example 171, 2-(3-Fluorophenyl)-3-oxo-N-(1,1,1-trifluoro-3-hydroxypropan-2-yl)-6-[4-(trifluoromethoxy)phenyl]-2,3-dihydropyridazine-4-carboxamide]

SMILES | IC50 (AHR [1]; [3]) [M] | IC50 (AHR [2]) [M] | IC50 (AHR [1]; [4]) [M]
Cc1ccc(-c2cc(C(=O)NCC(O)C(F)(F)F)c(=O)n(-c3cc(F)cc(F)c3)n2)cc1 (single isomer, unassigned) [Example 53, 2-(3,5-Difluorophenyl)-6-(4-methylphenyl)-3-oxo-N-(3,3,3-trifluoro-2-hydroxypropyl)-2,3-dihydropyridazine-4-carboxamide] | > 2e-05 | 8.85e-09 | 
